Test results published in patent US8697839B2, “GQ protein competitive inhibitory polypeptides, preparation methods and uses thereof” (Third Military Medical University, priority 2008, dated 2014).
Marks after values point to notes of the source that are not given here.

Key:
[1] = test system: rats with spontaneous hypertension (SHR); test: myocardial remodeling and blood pressure in rats with spontaneous hypertension (SHR); type: in vivo, rat; conditions: losartan 6 mg/kg intragastric qd
Procedure: 1. Thirty 13-week-old rats with spontaneous hypertension (SHR, purchased from Beijing Vital River Laboratory Animal Technology Co. Ltd., Beijing) were selected and randomly assigned into five groups with 6 rats per group:
SHR model group (Vehicle): 0.9% physiological saline, intraperitoneal injection at a dosage of 5 ml/kg, bid.
Positive control group (losartan): potassium losartan at a dosage of 6 mg/kg, intragastric administration, qd.
The pentadecapeptide group: administration of the pentadecapeptide at a dosage of 30 μg/kg by intraperitoneal injection, bid.
The heptacosapeptide group: administration of the heptacosapeptide at a dosage of 30 μg/kg by intraperitoneal injection, bid.
The pantapentacontapeptide group: administration of the pantapentacontapeptide at a dosage of 30 μg/kg by intraperitoneal injection, bid.
Six of INKY (Wistar-Kyoto) rats (purchased from Center for Experimental Animals, Third Military Medical University) were additionally selected as the normal control.
2. Intervention with the drug was performed consecutively for eight weeks (from Week 14 to Week 21). The body weights of all the tested rats were obtained once every two weeks, and the administration dosage was adjustedbased on body weights.

[2] = clinical dosage converted into the dosage in the mouse; cited from earlier work
[3] = echocardiography, SHR, x ± s, n = 6

CCCCc1nc(Cl)c(CO)n1Cc1ccc(-c2ccccc2-c2nn[nH]n2)cc1 [Losartan, potassium losartan]
Systolic blood pressure of artery ([1]; 0 w, SHR, x ± s, n = 6): 178.3 ± 2.24 mmHg
Systolic blood pressure of artery ([1]; 2 w, SHR, x ± s, n = 6): 165.1 ± 4.80 mmHg
Systolic blood pressure of artery ([1]; 4 w, SHR, x ± s, n = 6): 177.1 ± 8.27 mmHg
Systolic blood pressure of artery ([1]; 6 w, SHR, x ± s, n = 6): 178.3 ± 6.23 mmHg
Systolic blood pressure of artery ([1]; 8 w, SHR, x ± s, n = 6): 172.6 ± 4.82 mmHg
EF (ejection fraction) [1, 3]: 88.8 ± 2.62%
FS (shortening fraction) [1, 3]: 53.6 ± 3.57%
IVST (intervertricular septum thickness) [1, 3]: 1.87 ± 0.18 mm
LAD (left atrium sinistrum diameter) [1, 3]: 3.25 ± 0.23 mm
LVEDD (left ventricular end diastolic diameter) [1, 3]: 5.05 ± 0.42 mm
LVESD [1, 3]: 2.33 ± 0.18 mm
PWT (left ventricular posterior wall thickness) [1, 3]: 2.25 ± 0.21 mm
SV (stroke volume) [1, 3]: 0.21 ± 0.04 mL
HI ([1]; eight weeks, SHR, x ± s, n = 6): 3.48 ± 0.05 mg/g
HW ([1]; eight weeks, SHR, x ± s, n = 6): 1003 ± 16 mg
LVI ([1]; eight weeks, SHR, x ± s, n = 6): 2.74 ± 0.28 mg/g
LVW ([1]; eight weeks, SHR, x ± s, n = 6): 789 ± 88 mg
morphology of the cardiac muscle tissues, light microscope ([1]; FIG. 2): Pathological changes are somewhat improved
ultrastructure of the SHR cardiocyte, transmission electron microscope ([1]; FIG. 5): morphology of the cellular nucleus is essentially normal and somewhat irregular
CSA in comparison with the model group ([1]; P<0.01): significantly decreased
CSA (cross section area of the cardiocyte) ([1]; SHR, x ± s, n = 6): 335 ± 20** μm^2
TDM (trans diameter of the cardiocyte) ([1]; SHR, x ± s, n = 6): 13.83 ± 2.54 μm
ratio of mouse LD50/routine dosage [2]: 349
